Laboratory results published in patent publication US20200360331A1, “COMPOSITIONS COMPRISING 15-HEPE AND/OR 15-HETrE AND METHODS OF TREATING OR PREVENTING CARDIOMETABOLIC DISEASE, METABOLIC SYNDROME, AND/OR RELATED DISEASES” (Afimmune Limited, priority 2019, published 2020).
“Also recorded” adds a separate entry of the source.

What was measured:
Collagen Type 1 [1] = assay: BDL study: quantitative RT-PCR of liver, Collagen Type 1; format: in vivo, C57BL/6J mice; conditions: BDL mice liver
Procedure: (§1) Quantitative RT-PCR: Total ribonucleic acid (RNA) was extracted from liver samples using RNAiso (Takara Bio, Japan) according to the manufacturer's instructions. One μg of RNA was reverse-transcribed using a reaction mixture containing 4.4 mM magnesium chloride (MgCl2) (F. Hoffmann-La Roche, Switzerland), 40 U RNase inhibitor (Toyobo, Japan), 0.5 mM dNTP (Promega, USA), 6.28 μM random hexamer (Promega), 5× first strand buffer (Promega), 10 mM dithiothreitol (Invitrogen, USA) and 200 U MMLV-RT (Invitrogen) in a final volume of 20 μL. The reaction was carried out for 1 hour at 37° C., followed by 5 minutes at 99° C. Real-time PCR was performed using real-time PCR DICE and TB Green™ Premix Ex Taq™ II (Takara Bio). To calculate the relative mRNA expression level, the expression of each gene (α-SMA, TIMP-1, TGF-β and Collagen Type 1) was normalized to that of reference gene 36B4 (gene symbol: Rplp0). Information regarding the PCR-primer sets and the plate layout are described in Tables 8 and 9.

TGF-β = assay: BDL study: quantitative RT-PCR of liver, TGF-β; format: in vivo, C57BL/6J mice; conditions: BDL mice liver
Procedure: as §1

BDL-operated mice = assay: BDL study: Sirius red staining of liver sections, fibrosis area; format: in vivo, C57BL/6J mice
Procedure: BDL Surgery: On Day 0 of the study, BDL surgery was performed under pentobarbital (Kyoritsu Seiyaku, Japan) anesthesia. The mouse's hair was first shaved, the abdominal cavity cut open, and the common bile duct was ligated twice with 7-0 surgical silk. The mouse's peritoneum and the skin were closed with sutures, and the mice were transferred to a clean cage (e.g., resting cage) until recovered from anesthesia. Sham operated mice had their common bile duct exposed but not ligated.
[…]: To visualize collagen deposition, Bouin's fixed liver sections were stained using picro-Sirius red solution (Waldeck, Germany). For quantitative analysis of fibrosis area, bright field images of Sirius red-stained sections were captured using a digital camera (DFC295, Leica, Germany) at 100-fold magnification, and the positive areas in 5 fields/section were measured using ImageJ software (National Institute of Health, USA).

Collagen Type 1 [2] = assay: UUO study: quantitative RT-PCR of kidney, Collagen Type 1; format: in vivo, C57BL/6 mice; conditions: UUO mice kidney
Procedure: as §1, with “from kidney” for “from liver”, “[…] (mM) of” for “4.4 mM”, “relative […] (mRNA)” for “relative mRNA”, “gene (e.g., α-SMA,” for “gene (α-SMA,”, “Tables 1” for “Tables 8”, “and 2.” for “and 9.”

NAFLD patients = assay: Phase IIa NAFLD study: metabolic parameters and insulin resistance; format: in vivo, human
Procedure: The study was planned to include 96 evaluable patients with 32 patients randomized per treatment group.
HOMA-IR/Adipo-IR: HOMA-IR/Adipo-IR levels are a method of measuring insulin resistance. HOMA-IR is calculated by multiplying fasting plasma insulin (FPI) by fasting plasma glucose (FPG), then dividing by the constant 405. Adipo-IR is calculated by multiplying fasting non-esterified fatty acids (NEFA)×fasting insulin. Blood samples were taken to assess HOMA-IR and Adipo-IR at Visit 2/Baseline, Visit 3/Week 2, Visit 4/Week 4, Visit 6/Week 8, Visit 8/Week 12, Visit 10/Week16 and Follow up Visit 11/Week 20. All subjects were required to have been fasted for a minimum of 8 hours prior to blood sampling. If subjects had not fasted for a minimum of 8 hours, the duration of fasting time was recorded, and subjects encouraged to fast appropriately for the next clinical visit.
Exploratory analysis: The exploratory analysis included analysis of lipid and metabolic parameters including total cholesterol, triglycerides, very low-density lipoprotein cholesterol (VLDL-C), low density lipoprotein cholesterol (LDL-C), high density lipoprotein cholesterol (HDL-C), non-high-density lipoprotein cholesterol (non-HDL-C), remnant-like particle cholesterol (RLP-C), fasting glucose, insulin, free fatty acids and hemoglobin A1C (HbA1C). Additional exploratory analysis included high throughput lipidomics and proteomics.

[3] = relative mRNA normalized to 36B4, 50 mg/kg PO QD Day 0-13
[4] = relative mRNA normalized to 36B4, 250 mg/kg PO QD Day 0-13
[5] = relative mRNA normalized to 36B4, 500 mg/kg PO QD Day 0-13
[6] = NAFLD patients, 1 g or 2 g per day
[7] = baseline to Week 16, 1 g or 2 g per day vs placebo

## CC/C=C\CC(O)/C=C/C=C\C/C=C\C/C=C\CCCC(=O)O (stereo not drawn) [DS102, 15-hydroxy-eicosa-5Z,8Z,11Z,13E,17Z-pentaenoic acid]
Collagen Type 1 [1]; 500 mg/kg
  Collagen Type 1 mRNA expression level compared with the Vehicle group: tended to decrease; also recorded: trend approaching significance
Collagen Type 1 [1]; DS102 treatment groups
  Collagen Type 1 mRNA expression level vs Vehicle group: no significant differences
Collagen Type 1 [1]; [3]
  Collagen Type 1 gene expression: 4.94 ± 2.76
Collagen Type 1 [1]; [4]
  Collagen Type 1 gene expression: 4.21 ± 1.90
Collagen Type 1 [1]; [5]
  Collagen Type 1 gene expression: 2.51 ± 1.39
TGF-β; 500 mg/kg
  TGF-β mRNA expression level compared with the Vehicle group: significant decrease
TGF-β; DS102 treatment groups
  TGF-β mRNA expression level vs Vehicle group: no significant differences
TGF-β; [3]
  TGF-β gene expression: 1.48 ± 0.48
TGF-β; [4]
  TGF-β gene expression: 1.50 ± 0.44
TGF-β; [5]
  TGF-β gene expression: 1.00 ± 0.23
BDL-operated mice; BDL mice liver, 500 mg/kg
  fibrosis area compared with the Vehicle group: tended to decrease; also recorded: trend approaching significance
BDL-operated mice; BDL mice, liver, 50 mg/kg
  fibrosis area compared with the Vehicle group: no significant difference
BDL-operated mice; BDL mice, liver, 50 mg/kg PO QD Day 0-13, Day 14
  Sirius red-positive area: 1.70 ± 0.63%
BDL-operated mice; BDL mice, liver, 250 mg/kg
  fibrosis area compared with the Vehicle group: significant decrease
BDL-operated mice; BDL mice, liver, 250 mg/kg PO QD Day 0-13, Day 14
  Sirius red-positive area: 1.06 ± 0.48%
BDL-operated mice; BDL mice, liver, 500 mg/kg PO QD Day 0-13, Day 14
  Sirius red-positive area: 1.42 ± 0.60%
Collagen Type 1 [2]; [3]
  Collagen Type 1 gene expression: 11.80 ± 1.78
Collagen Type 1 [2]; [5]
  Collagen Type 1 gene expression: 14.09 ± 2.88
NAFLD patients; [6]
  insulin sensitivity and glycemic control: improvement
  markers of metabolic overload: statistically significant reduction
NAFLD patients; Week 16, 1 g or 2 g per day vs placebo
  insulin resistance indices (HOMA-IR and adipo-IR levels): reduction in HOMA-IR and adipo-IR levels
NAFLD patients; Week 16, 2 g, Per Protocol Set (PPS)
  insulin resistance indices (HOMA-IR and adipo-IR levels): significant improvements
NAFLD patients; [7]
  HbA1c levels, glycemic control: clinically significant improvements
  insulin, glucose, and free fatty acid levels: reduction
